Measured values from patent US20180028667A1, “AQUEOUS LIQUID AGENT” (SENJU PHARMACEUTICAL CO., LTD., priority 2014, published 2018).

Test: Measurement of solubility of compound A in various solvents (oil components)
Assay type: physicochemical
Details: 25° C., stirred 24 hr
Method: An excess amount (about 0.2 g) of compound A was added to various solvents (10 g) described in Table 7, and the mixture was stirred at 25° C. for 24 hr. Thereafter, the solvent was filtered off through a 0.45 μm non-aqueous filter while maintaining the temperature. The content of compound A contained in the filtrate was measured in the same manner as in Experimental Example 1, and the solubility of compound A in various solvents was calculated.

solubility (solvent castor oil): 0.311% | solubility (solvent corn oil): 0.008% | solubility (solvent cottonseed oil): 0.008% | solubility (solvent olive oil): 0.009% | solubility (solvent rape seed oil): 0.007% | solubility (solvent soybean oil): 0.007%
SMILES: Cc1cc(C(=O)Nc2cc(Oc3ccc4nc(NC(=O)C5CC5)cn4n3)ccc2C)n(C)n1 [compound A, N-[5-({2-[(cyclopropylcarbonyl)amino]imidazo[1,2-b]pyridazin-6-yl}oxy)-2-methylphenyl]-1,3-dimethyl-1H-pyrazole-5-carboxamide]
